In PMC2585982 (Toxicology and applied pharmacology, 2008):

How the values were obtained:
P450 3A11 [1] = assay: Liver microsomal P450 3A activity; format: in vivo, mice; conditions: for Increase in P450 3A activity (testosterone), liver microsomes: C57BL/6 mice, 100 mg/kg p.o. 3 days, vs corn oil
GST (DCNB, GST μ) = assay: Liver cytosolic GST activity, DCNB as substrate, after oral dosing of mice; format: in vivo; conditions: C57BL/6 mice, 100 mg/kg p.o. 3 days, vs corn oil
P450 1A1/1A2 [2] = assay: Western blot of liver microsomes, P450 1A1/1A2 protein expression; conditions: C57BL/6 mice, 100 mg/kg p.o. 3 days
P450 2B10 [3] = assay: Western blot of liver microsomes, P450 2B10 protein expression; conditions: C57BL/6 mice, 100 mg/kg p.o. 3 days
P450 3A11 [4] = assay: Western blot of liver microsomes, P450 3A11 protein expression; conditions: C57BL/6 mice, 100 mg/kg p.o. 3 days
P450s 2B9/10 [5] = assay: Liver microsomal P450 2B activity; format: in vivo, mice; conditions: mouse, in vivo
NQO = assay: Liver cytosolic NQO activity; format: in vivo, mice; conditions: vs corn oil; for Increase in NQO activity, liver cytosol: C57BL/6 mice, 100 mg/kg p.o. 3 days
P450s 1A1/2 = assay: Liver microsomal P450 1A activity; format: in vivo, mice; conditions: mouse, in vivo
[6] = system: GST (cumene hydroperoxide); assay: Liver GST activity, cumene hydroperoxide as substrate, after oral dosing of mice; format: in vivo; conditions: female SENCAR mice, even at the highest doses, data not shown
GSTα = assay: Western blot of liver cytosol, GSTα protein expression; format: in vivo; conditions: SENCAR mice, 35, 70, 150 mg/kg p.o., particularly at the highest doses
GSTπ = assay: Western blot of liver cytosol, GSTπ protein expression; format: in vivo; conditions: SENCAR mice, 35, 70, 150 mg/kg p.o.
GSTμ = assay: Western blot of liver cytosol, GSTμ protein expression; format: in vivo, mice; conditions: SENCAR mice, 35, 70, 150 mg/kg p.o.
P450 1A1/1A2 [7] = conditions: mouse, in vivo
P450 2B10 [8] = conditions: mouse, in vivo
P450s 2B9/10 [9] = conditions: mouse, in vivo; cited from earlier work
P450 2B = conditions: cited from earlier work

Row | P450 1A1/1A2 protein expression (western blot densitometry) (P450 1A1/1A2 [2]) | P450 2B10 protein expression (western blot densitometry) (P450 2B10 [3]) | P450 3A11 protein expression (western blot densitometry) (P450 3A11 [4]) | SMILES | Increase in P450 3A activity (testosterone), liver microsomes (P450 3A11 [1]) | GST activity using DCNB as a substrate, liver cytosol (GST (DCNB, GST μ)) | Increase in NQO activity, liver cytosol (NQO) | further results
1 | did not have any apparent effect | did not have any apparent effect | did not have any apparent effect | O=c1ccc2ccccc2o1 [coumarin, 1,2-benzopyrone] | – | highest increase | 2–3 fold | –
2 | did not have any apparent effect | did not have any apparent effect | did not have any apparent effect | COc1cc(OC)c2ccc(=O)oc2c1 [limettin, 5,7-dimethoxycoumarin] | – | – | – | –

More lines, now with the values behind:

Row | SMILES | P450 1A1/1A2 protein expression (western blot densitometry) (P450 1A1/1A2 [2]) | P450 2B10 protein expression (western blot densitometry) (P450 2B10 [3]) | P450 3A11 protein expression (western blot densitometry) (P450 3A11 [4]) | Increase in P450 3A activity (testosterone), liver microsomes (P450 3A11 [1]) | GST activity using DCNB as a substrate, liver cytosol (GST (DCNB, GST μ)) | Increase in NQO activity, liver cytosol (NQO) | further results
3 | O=c1ccc2ccc3occc3c2o1 [angelicin] | increased | – | – | not statistically significant | highest increase | – | –
4 | CC(C)=CCC/C(C)=C/COc1ccc2ccc(=O)oc2c1 [auraptene] | did not have any apparent effect | did not have any apparent effect | did not have any apparent effect | – | – | – | –
5 | CC(C)=CCC/C(C)=C/COc1c2ccoc2cc2oc(=O)ccc12 [bergamottin] | increased | increased | increased | 3–4 fold | – | 2–3 fold | Increase in P450 2B activity (pentoxyresorufin), liver microsomes (P450s 2B9/10 [5]; po, 100 mg/kg): ~ 5 fold
6 | CC(C)=CCOc1c2occc2cc2ccc(=O)oc12 [imperatorin] | – | – | – | – | – | – | P450 1 activity, liver microsomes, dose-response study (P450s 1A1/2): significant increases; Increase in P450 2B9/10 enzyme activity, dose-response study (P450s 2B9/10 [5]): ~ 100 fold; P450 2B activity, liver microsomes, dose-response study (P450s 2B9/10 [5]): significant increases; P450 3A activity, liver microsomes, dose-response study (P450 3A11 [1]; mouse, in vivo): increased; GST activity using cumene hydroperoxide as a substrate [6]: no differences; Liver cytosolic NQO activity, dose-response study (NQO; female SENCAR mice, 35, 70, 150 mg/kg p.o. 4 days): increased at all doses; Hepatic expression of GST α protein, dose-response study (GSTα): greatly increased; Hepatic expression of GST π protein, dose-response study (GSTπ): modest increase; Hepatic expression of GST μ protein, dose-response study (GSTμ): no increase; P450 1A1/1A2 protein levels, dose-response study (P450 1A1/1A2 [7]): elevated; Increase in P450 2B9/10 protein expression (optical density), dose-response study (P450 2B10 [8]): 1.5–2 fold; P450 2B10 protein levels, dose-response study (P450 2B10 [8]): significantly elevated; Hepatic P450 2B9/10 activity at 1 h after the final dose (P450s 2B9/10 [9]): no elevation; Increase in hepatic P450 2B9/10 activity at 24 h after the final dose (P450s 2B9/10 [9]): 100 fold; Potency at blocking P450 2B activity relative to isopimpinellin (P450 2B): 10–100 times
